According to patent US12630528B2, “Amino aryl derivative useful as diacylglycerol acyltransferase 2 inhibitor and use thereof” (LG CHEM, LTD., priority 2019, dated 2026):

biological target: T1, human DGAT2 (Homo sapiens, UniProt Q96PD7); test: DGAT2 enzyme activity inhibition, Phospholipid FlashPlate SPA; format: biochemical; conditions: recombinant human DGAT2 membrane protein from Sf-21 cells; inhibition of [14C]-TG production; 37° C.
T1 construct: FLAG (DYKDDDDK); made in house; host or cells: Sf-21 insect cells (BacPAK baculovirus system); membrane fraction used
T1 sequence (Q96PD7 1-388): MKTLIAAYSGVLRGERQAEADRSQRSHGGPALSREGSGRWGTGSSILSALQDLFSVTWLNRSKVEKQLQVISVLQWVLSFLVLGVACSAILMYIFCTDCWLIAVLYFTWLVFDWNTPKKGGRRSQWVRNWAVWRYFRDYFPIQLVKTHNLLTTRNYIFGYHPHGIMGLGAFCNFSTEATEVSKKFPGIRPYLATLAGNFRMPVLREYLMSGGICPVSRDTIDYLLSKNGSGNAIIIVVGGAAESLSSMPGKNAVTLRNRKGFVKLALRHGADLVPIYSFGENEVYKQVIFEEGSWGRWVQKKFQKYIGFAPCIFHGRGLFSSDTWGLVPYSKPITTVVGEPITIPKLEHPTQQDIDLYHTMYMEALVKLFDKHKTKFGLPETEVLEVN
Summary of the method: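 Sf-21 membranes expressing recombinant human DGAT2 (2 μg) preincubated with compound (3 nM–10 μM, 1% DMSO) and 50 μM 1,2 sn-oleoyl glycerol, 20 min at 37 °C, then 1 μM [14C]oleoyl-CoA for 15 min. [14C]-TG counted by SPA; inhibition as % of untreated.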

Row | SMILES | IC50 [nM]
1 | CCOc1ccccc1O[C@@H]1CCCN(c2nc(Nc3cccc(-c4cccc(CC(C)(C)C(=O)O)c4)n3)ncc2C(F)(F)F)C1 [Example 71, (R)-3-(3-(6-((4-(3-(2-ethoxyphenoxy)piperidin-1-yl)-5-(trifluoromethyl)pyrimidin-2-yl)amino)pyridin-2-yl)phenyl)-2,2-dimethylpropanoic Acid] | 670
2 | CCOc1ccccc1O[C@@H]1CCCN(c2cncc(Nc3ccn(CC(=O)O)n3)n2)C1 [Example 20, (R)-2-(3-((6-(3-(2-ethoxyphenoxy)piperidin-1-yl)pyrazin-2-yl)amino)-1H-pyrazol-1-yl)acetic Acid] | > 10000
3 | CCOc1ccccc1O[C@@H]1CCCN(c2cncc(Nc3nc4ccc(CCC(=O)O)cc4o3)n2)C1 [Example 18, (R)-3-(2-((6-(3-(2-ethoxyphenoxy)piperidin-1-yl)pyrazin-2-yl)amino)benzo[d]oxazol-6-yl)propanoic Acid] | 1100
4 | CCOc1ccccc1O[C@@H]1CCCN(c2cncc(Nc3ccc(C)c(-c4cccc(CC(C)(C)C(=O)O)c4)n3)n2)C1 [Example 111, (R)-3-(3-(6-((6-(3-(2-ethoxyphenoxy)piperidin-1-yl)pyrazin-2-yl)amino)-3-methylpyridin-2-yl)phenyl)-2,2-dimethylpropanoic Acid] | 2200
5 | CCOc1ccccc1O[C@@H]1CCCN(c2cncc(Nc3cc(-c4cccc(CC(C)(C)C(=O)O)c4)ccn3)n2)C1 [Example 44, (R)-3-(3-(2-((6-(3-(2-ethoxyphenoxy)piperidin-1-yl)pyrazin-2-yl)amino)pyridin-4-yl)phenyl)-2,2-dimethylpropanoic Acid] | 4000
6 | CCOc1cccnc1O[C@@H]1CCCN(c2ccnc(Nc3cccc(-c4cccc(CC(C)(C)C(=O)O)c4)n3)n2)C1 [Example 68, (R)-3-(3-(6-((4-(3-((3-ethoxypyridin-2-yl)oxy)piperidin-1-yl)pyrimidin-2-yl)amino)pyridin-2-yl)phenyl)-2,2-dimethylpropanoic Acid] | 3300
7 | CCOc1cccnc1O[C@@H]1CCCN(c2cncc(Nc3nccc(O[C@H]4CC[C@@H](C(=O)O)CC4)n3)n2)C1 [Example 138, (1S,4s)-4-((2-((6-((R)-3-((3-ethoxypyridin-2-yl)oxy)piperidin-1-yl)pyrazin-2-yl)amino)pyrimidin-4-yl)oxy)cyclohexane-1-carboxylic Acid] | 780
8 | CCOc1ccccc1O[C@@H]1CCCN(c2cncc(Nc3nccc(N4CCN(CC(=O)O)CC4)n3)n2)C1 [Example 127, (R)-2-(4-(2-((6-(3-(2-ethoxyphenoxy)piperidin-1-yl)pyrazin-2-yl)amino)pyrimidin-4-yl)piperazin-1-yl)acetic Acid] | 2900
9 | CCOc1ccccc1O[C@@H]1CCCN(c2ncc(C(F)(F)F)c(Nc3cccc(-c4cccc(CC(C)(C)C(=O)O)c4)n3)n2)C1 [Example 70, (R)-3-(3-(6-((2-(3-(2-ethoxyphenoxy)piperidin-1-yl)-5-(trifluoromethyl)pyrimidin-4-yl)amino)pyridin-2-yl)phenyl)-2,2-dimethylpropanoic Acid] | > 10000
10 | CCOc1ccccc1O[C@@H]1CCCN(c2cncc(Nc3cc(C(=O)O)ccn3)n2)C1 [Example 33, (R)-2-((6-(3-(2-ethoxyphenoxy)piperidin-1-yl)pyrazin-2-yl)amino)isonicotinic Acid] | > 10000
11 | CCOc1ccccc1O[C@@H]1CCCN(c2cncc(Nc3nc4cc(CC(C)(C)C(=O)O)ccc4o3)n2)C1 [Example 14, (R)-3-(2-((6-(3-(2-ethoxyphenoxy)piperidin-1-yl)pyrazin-2-yl)amino)benzo[d]oxazol-5-yl)-2,2-dimethylpropanoic Acid] | 3100

Compounds with a lower IC50, results first:

Row | IC50 [nM] | SMILES
12 | 570 | CCOc1ccccc1O[C@@H]1CCCN(c2cncc(Nc3cccc(OCc4ccc(C(=O)O)cc4)n3)n2)C1 [Example 99, (R)-4-(((6-((6-(3-(2-ethoxyphenoxy)piperidin-1-yl)pyrazin-2-yl)amino)pyridin-2-yl)oxy)methyl)benzoic Acid]
13 | 490 | CCOc1cccnc1O[C@@H]1CCCN(c2cncc(Nc3ccc(F)c(-c4cc(CC(C)(C)C(=O)O)ccc4F)n3)n2)C1 [Example 106, (R)-3-(3-(6-((6-(3-((3-ethoxypyridin-2-yl)oxy)piperidin-1-yl)pyrazin-2-yl)amino)-3-fluoropyridin-2-yl)-4-fluorophenyl)-2,2-dimethylpropanoic Acid]
14 | 340 | CCOc1ccccc1O[C@@H]1CCCN(c2cncc(Nc3cccc(Oc4cccc(C(C)(C)C(=O)O)c4)n3)n2)C1 [Example 91, (R)-2-(3-((6-((6-(3-(2-ethoxyphenoxy)piperidin-1-yl)pyrazin-2-yl)amino)pyridin-2-yl)oxy)phenyl)-2-methylpropanoic Acid]
15 | 300 | CCOc1cccnc1O[C@@H]1CCCN(c2cncc(Nc3cccc(Oc4cccc(C(C)(C)C(=O)O)c4)n3)n2)C1 [Example 92, (R)-2-(3-((6-((6-(3-((3-ethoxypyridin-2-yl)oxy)piperidin-1-yl)pyrazin-2-yl)amino)pyridin-2-yl)oxy)phenyl)-2-methylpropanoic Acid]
16 | 270 | CCOc1cccnc1O[C@@H]1CCCN(c2cncc(Nc3cccc(-c4cc(CC(C)(C)C(=O)O)ccc4F)n3)n2)C1 [Example 79, (R)-3-(3-(6-((6-(3-((3-ethoxypyridin-2-yl)oxy)piperidin-1-yl)pyrazin-2-yl)amino)pyridin-2-yl)-4-fluorophenyl)-2,2-dimethylpropanoic Acid]
17 | 250 | CCOc1ccccc1O[C@@H]1CCCN(c2cncc(Nc3ccnc(-c4ccc(CC(C)(C)C(=O)O)cc4)n3)n2)C1 [Example 172, (R)-3-(4-(4-((6-(3-(2-ethoxyphenoxy)piperidin-1-yl)pyrazin-2-yl)amino)pyrimidin-2-yl)phenyl)-2,2-dimethylpropanoic Acid]
18 | 230 | CCOc1cccnc1O[C@@H]1CCCN(c2cncc(Nc3cccc(Oc4ccc(C(C)(C)C(=O)O)cc4)n3)n2)C1 [Example 94, (R)-2-(4-((6-((6-(3-((3-ethoxypyridin-2-yl)oxy)piperidin-1-yl)pyrazin-2-yl)amino)pyridin-2-yl)oxy)phenyl)-2-methylpropanoic Acid]
19 | 220 | CCOc1ccccc1O[C@@H]1CCCN(c2cncc(Nc3cccc(-c4cccc(C(C)(C)C(=O)O)c4)n3)n2)C1 [Example 60, (R)-2-(3-(6-((6-(3-(2-ethoxyphenoxy)piperidin-1-yl)pyrazin-2-yl)amino)pyridin-2-yl)phenyl)-2-methylpropanoic Acid]
20 | 180 | CCOc1cccnc1O[C@@H]1CCCN(c2cncc(Nc3nccc(-c4ccc(CC(C)(C)C(=O)O)cc4)n3)n2)C1 [Example 154, (R)-3-(4-(2-((6-(3-((3-ethoxypyridin-2-yl)oxy)piperidin-1-yl)pyrazin-2-yl)amino)pyrimidin-4-yl)phenyl)-2,2-dimethylpropanoic Acid]
21 | 160 | CCOc1ccccc1O[C@@H]1CCCN(c2cncc(Nc3nccc(-c4ccc(CC(C)(C)C(=O)O)cc4)n3)n2)C1 [Example 153, (R)-3-(4-(2-((6-(3-(2-ethoxyphenoxy)piperidin-1-yl)pyrazin-2-yl)amino)pyrimidin-4-yl)phenyl)-2,2-dimethylpropanoic Acid]
22 | 71 | CCOc1ccccc1O[C@@H]1CCCN(c2cncc(Nc3cccc(-c4cccc(CC(C)(C)C(=O)O)c4)n3)n2)C1 [Example 63, (R)-3-(3-(6-((6-(3-(2-ethoxyphenoxy)piperidin-1-yl)pyrazin-2-yl)amino)pyridin-2-yl)phenyl)-2,2-dimethylpropanoic Acid]
